Experiments:
CDK6/CyclinD3 = CDK6/CyclinD3 (Homo sapiens (Human), UniProt Q00534); assay: CDK kinase inhibitory activity, ADP-Glo Kinase Assay, CDK6/CyclinD3; type: biochemical; conditions: for CDK1/CDK6: ratio of IC50s, selectivity for CDK6 over CDK1
Experimental: (§1) Measurement of CDK kinase inhibitory activity of the compounds of this disclosure.
(§2) In vitro inhibitory effect of the compounds of the disclosure on CDK (CDK1, CDK4 and CDK6) kinase activity was tested by the following method.
(§3) 1.1 Instrument and Kit Information
(§4) 1.2 Experimental Preparation • 1.2.1 Preparation of Kinase Reaction Buffer I: The 5×Reaction Buffer A (Promega; V307A-C) provided in the kit was mixed and diluted with MILLI-Q® H2O and 0.1 M DTT (dithiothreitol) to give 4× kinase buffer, and then MILLI-Q® H2O was further added to finally formulate the solution into 1× Kinase buffer.
(§5) 1 μl of 10 mM standard substance stock solution was taken and added to 9 μl of kinase reaction buffer I and mixed well; then 90 μl of kinase reaction buffer I was added and mixed well; then 100 μl of kinase reaction buffer I was added and mixed well. The final concentration was 50 μM. • b. 40 μl of kinase reaction buffer II was added into B2 to B10 of a 96-well plate, and 50 μl of the above solution was added into B1; • c. 10 μl of solution was taken from well B1, added into B2, and mixed well; then 10 μl of the resulting solution was taken and added into B3, and dilution was carried out in sequence to B9, so as to obtain control solutions that are diluted by 5-fold sequentially. • (2) Preparation of test compound solution: • a. Test compound solutions at a certain concentration were taken, respectively, diluted with kinase reaction buffer I to a final concentration of 50 μM compound solution; • b. 40 μl of kinase reaction buffer II was added into H2 to H10 of the 96-well plate; and 50 μl of the above solution was added into H1; • c. 10 μl of solution was taken from well H1, added into H2, and mixed well; then 10 μl of the resulting solution was taken and added into H3, and dilution was carried out in sequence to H9, so as to obtain test compound solutions that are diluted by 5-fold sequentially. • 1.2.4 Preparation of a mixed solution of reaction substrate and ATP: • a. Preparation of ATP solution: • 200 μl of 0.1 mM ATP solution: 2 μl of 10 mM ATP was added to 198 μl of kinase reaction buffer I; • 300 μl of 50 μM ATP solution: 150 μl of kinase reaction buffer I was added to 150 μl of the above 0.1 mM ATP solution; • b. Preparation of 300 μl of reaction substrate solution: • 150 μl 1 μg/μl reaction substrate stock solution was added to 150 μl kinase reaction buffer I, and mixed well; • c. The above a/b solutions were mixed to obtain mixed solutions, respectively.
(§6) 1.3 Experimental process: • 1.3.1: 2 μl of compound solutions of various concentrations were taken, added to a 384-well plate, and centrifuged 3 minutes; • 1.3.2: 4 μl of kinase solution was added to each well, centrifuged at 5000 rpm and 18° C. for 10 minutes, and shaken on a plate shaker for 10 minutes; • 1.3.3: 4 μl of mixed solution of substrate and ATP was added to each well, centrifuged at 5000 rpm and 18° C. for 10 minutes, and shaken on a plate shaker at 37° C. for 90 minutes; • 1.3.4: The 384-well plate was taken out, and allowed to stand to room temperature; • 1.3.5: 10 μl of ADP-GLO™ reagent was added to each well, centrifuged at 5000 rpm and 18° C. for 18 minutes, and shaken on a plate shaker at 25° C. for 40 minutes, and then the reaction was stopped; • 1.3.6: 20 μl of kinase detection reagent was added to each well, centrifuged at 5000 rpm and 18° C. for 10 minutes, and shaken on a plate shaker at 25° C. for 30 minutes; and • 1.3.7: M1000pro MICROPLATE READER was used to read […] values.
(§7) The inhibition rate of each compound at each concentration point was calculated by the formula as follows and curve fitting was performed by GraphPad Prism 5 software to obtain the IC50 value.

CDK1/CyclinA2 = CDK1/CyclinA2 (Homo sapiens (Human), UniProt P06493); assay: CDK kinase inhibitory activity, ADP-Glo Kinase Assay, CDK1/CyclinA2; type: biochemical
Experimental: as §1, §2, §3, §4, §5, §6, §7

| SMILES | IC50 (CDK6/CyclinD3) | CDK1/CDK6 (CDK6/CyclinD3) | IC50 (CDK1/CyclinA2) |
| --- | --- | --- | --- |
| CC1=Nc2c(F)cc(-c3nc(Nc4ccc(CN5CCN(C)CC5)cn4)ncc3F)cc2C12CCCC2 [Example 43, 5-Fluoro-4-(7′-fluoro-2′-methylspiro[cyclopentane-1,3′-indol]-5′-yl)-N-(5-((4-methylpiperazin-1-yl)methyl)pyridin-2-yl)pyrimidine-2-amino] | 0.9 nM | 298.78 | 269 nM |
| CC1=Nc2c(F)cc(-c3nc(Nc4ccc(OC5CCN(C)CC5)cn4)ncc3F)cc2C12CCCC2 [Example 45, N-(5-((1-methylpiperidin-4-yl)oxy)-pyridin-2-yl)-5-fluoro-4-(7′-fluoro-2′-methylspiro[cyclopentane-1,3′-indol]-5′-yl)pyrimidine-2-amino] | 43.9 nM | – | – |
| CCN1CCN(c2ccc(Nc3ncc(F)c(-c4cc(F)c5c(c4)C4(CCCC4)C(C)=N5)n3)nc2)CC1 [Example 27, N-(5-(4-ethylpiperazin-1-yl)pyridin-2-yl)-5-fluoro-4-(7′-fluoro-2′-methylspiro [cyclopentane-1,3′-indol]-5′-yl)pyrimidine-2-amino] | 16.2 nM | – | – |
| CCN1CCN(c2ccc(Nc3ncc(F)c(-c4cc(F)c5c(c4)C(C)(CC)C(C)=N5)n3)nc2)CC1 (stereo not drawn) [Example 19, 4-(3-ethyl-7-fluoro-2,3-dimethyl-3H-indol-5-yl)-N-(5-(4-ethylpiperazin-1-yl)pyridin-2-yl)-5-fluoropyrimidine-2-amino] | 65.5 nM | 0.99 | – |
| CC1=Nc2ccc(-c3nc(Nc4ccc(C5CCN(C)CC5)cn4)ncc3F)cc2C12CCCC2 [Example 23] | 4.53 nM | 11.10 | 50.3 nM |
| CCC1(C)C(C)=Nc2c(F)cc(-c3nc(Nc4ccc5c(n4)CCN(C(=O)CO)C5)ncc3F)cc21 (stereo not drawn) [Example 39, 1-(2-((4-(3-Ethyl-7-fluoro-2,3-dimethyl-3H-indol-5-yl)-5-fluoropyrimidin-2-yl)amino)-7,8-dihydro-1,6-naphthyridine-6 (5H)-yl)-2-hydroxyacetamide] | 5.65 nM | 6.82 | 38.5 nM |
| CCN1CCN(Cc2ccc(Nc3nccc(-c4cc(F)c5c(c4)C4(CCCC4)C(C)=N5)n3)nc2)CC1 [Example 8, N-(5-((4-ethylpiperazin-1-yl)methyl)pyridin-2-yl)-4-(7′-fluoro-2′-methylspiro [cyclopentane-1,3′-indol]-5′-yl)pyrimidine-2-amino] | 85.8 nM | – | – |
| CCN1CCN(Cc2ccc(Nc3ncc(F)c(-c4cc(F)c5c(c4)C4(CCC4)C(C)=N5)n3)nc2)CC1 [Example 4, N-(5-((4-ethylpiperazin-1-yl)methyl)pyridin-2-yl)-5-fluoro-4-(7′-fluoro-2′-methylspiro[cyclobutane-1,3′-indol]-5′-yl)aminopyrimidine-2-amino] | 2150 nM | – | – |
| CC1=Nc2c(F)cc(-c3nc(Nc4ccc(C5CCN(C)CC5)cn4)ncc3F)cc2C1(C)C [Example 31, 5-Fluoro-4-(7-fluoro-2,3,3-trimethyl-3H-indol-5-yl)-N-(5-(1-methylpiperidin-4-yl)pyridin-2-yl)pyrimidine-2-amino] | 58.8 nM | – | – |
| CCN1CCN(c2ccc(Nc3ncc(F)c(-c4ccc5c(c4)C(C)(CC)C(C)=N5)n3)nc2)CC1 (stereo not drawn) [Example 36, 4-(3-ethyl-2,3-dimethyl-3H-indol-5-yl)-N-(5-(4-ethylpiperazin-1-yl)pyridin-2-yl)-5-fluoropyrimidine-2-amino] | 3.79 nM | 26.65 | – |
| CCN1CCN(Cc2ccc(Nc3ncc(F)c(-c4cc(F)c5c(c4)C(C)(C)C(C)=N5)n3)nc2)CC1 [Example 2, N-(5-((4-ethylpiperazin-1-yl)methyl)pyridin-2-yl)-5-fluoro-4-(7-fluoro-2,3,3-trimethyl-3H-indol-5-yl)pyrimidine-2-amino] | 159 nM | – | – |

The remaining lines, values ahead:

| IC50 (CDK6/CyclinD3) | CDK1/CDK6 (CDK6/CyclinD3) | IC50 (CDK1/CyclinA2) | SMILES |
| --- | --- | --- | --- |
| 5.62 nM | 19.58 | – | CCC1(C)C(C)=Nc2c(F)cc(-c3nc(Nc4ccc(C5CCNCC5)cn4)ncc3F)cc21 (stereo not drawn) [Example 11] |
| 2.33 nM | – | – | CCC1(C)C(C)=Nc2c(F)cc(-c3nc(Nc4ccc(CN5CCN(C)CC5)cn4)ncc3F)cc21 (stereo not drawn) [Example 42, 4-(3-ethyl-7-fluoro-2,3-dimethyl-3H-indol-5-yl)-5-fluoro-N-(5-((4-methylpiperazin-1-yl)methyl)pyridin-2-yl)pyrimidine-2-amino] |
| 22.9 nM | 3.22 | 73.7 nM | CC1=Nc2ccc(-c3nc(Nc4ccc(C5CCN(C)CC5)cn4)ncc3F)cc2C1(C)C [Example 37, 5-Fluoro-N-(5-(1-methylpiperidin-4-yl)pyridin-2-yl)-4-(2,3,3-trimethyl-3H-indol-5-yl)pyrimidine-2-amino] |
| 25 nM | 6.47 | 162 nM | CC1=Nc2c(F)cc(-c3nc(Nc4ccc5c(n4)CCN(C(=O)CO)C5)ncc3F)cc2C12CCCC2 [Example 40, 1-(2-((5-fluoro-4-(7′-fluoro-2′-methylspiro[cyclopentane-1,3′-indol]-5′-yl)pyrimidin-2-yl)amino)-7,8-dihydro-1,6-naphthyridine-6 (5H)-yl)-2-hydroxyacetamide] |
| 7.53 nM | 58.23 | 439 nM | CCN1CCN(Cc2ccc(Nc3ncc(F)c(-c4cc(F)c5c(c4)C(C)(CC)C(C)=N5)n3)nc2)CC1 (stereo not drawn) [Example 5, 4-(3-ethyl-7-fluoro-2,3-dimethyl-3H-indol-5-yl)-N-(5-((4-ethylpiperazin-1-yl)methyl)pyridin-2-yl)-5-fluoropyrimidine-2-amino] |
| 76.6 nM | – | – | CC1=Nc2c(F)cc(-c3nc(Nc4ccc(N5CCN(CC6CC6)CC5)cn4)ncc3F)cc2C12CCCC2 [Example 41, N-(5-(4-(cyclopropylmethyl)piperazin-1-yl)pyridin-2-yl)-5-fluoro-4-(7′-fluoro-2′-methylspiro[cyclopentane-1,3′-indol]-5′-yl)pyrimidine-2-amino] |
| 27.7 nM | 4.89 | 135 nM | CCN1CCC(c2ccc(Nc3ncc(F)c(-c4ccc5c(c4)C4(CCCC4)C(C)=N5)n3)nc2)CC1 [Example 21, N-(5-(1-ethylpiperidin-4-yl)pyridin-2-yl)-5-fluoro-4-(2′-methylspiro[cyclopentane-1,3′-indol]-5′-yl)pyrimidine-2-amino] |
| 15.6 nM | 10.65 | – | CCC1(C)C(C)=Nc2ccc(-c3nc(Nc4ccc(C5CCNCC5)cn4)ncc3F)cc21 (stereo not drawn) [Example 33, 4-(3-ethyl-2,3-dimethyl-3H-indol-5-yl)-5-fluoro-N-(5-(piperidin-4-yl)pyridin-2-yl)pyrimidine-2-amino] |
| 5.13 nM | 21.75 | – | CCC1(C)C(C)=Nc2ccc(-c3nc(Nc4ccc(N5CCN(C)CC5)cn4)ncc3F)cc21 (stereo not drawn) [Example 34, 4-(3-ethyl-2,3-dimethyl-3H-indol-5-yl)-5-fluoro-N-(5-(4-methylpiperazin-1-yl)pyridin-2-yl)pyrimidine-2-amino] |
| 10.1 nM | 14.01 | – | CCC1(C)C(C)=Nc2ccc(-c3nc(Nc4ccc(N5CCNCC5)cn4)ncc3F)cc21 (stereo not drawn) [Example 32, 4-(3-ethyl-2,3-dimethyl-3H-indol-5-yl)-5-fluoro-N-(5-(piperazin-1-yl)pyridin-2-yl)pyrimidine-2-amino] |
| 37.5 nM | – | – | CC1=Nc2c(F)cc(-c3nc(Nc4ccc(C5CCN(C)CC5)c(C)n4)ncc3F)cc2C12CCCC2 [Example 44, N-(5-(1-methylpiperidin-4-yl)-(6-methylpyridin)-2-yl)-5-fluoro-4-(7′-fluoro-2′-methylspiro[cyclopentane-1,3′-indol]-5′-yl)pyrimidine-2-amino] |

Source: patent US11091476B2, “Protein kinase inhibitors, preparation method and medical use thereof” (Gan & Lee Pharmaceuticals, priority 2015, dated 2021)
